Source: PubChem BioAssay (NCI)
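Step 1: Grow cells in 96-well plates. Step 2: Expose to compound for 48 hours at 5 concentrations. Step 3: Interpolate endpoints linearly; if unreached, use highest concentration. TGI marks complete inhibition of growth.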

How the values were obtained:
Assay in all cases: DTP human tumour cell line panel, 48 h
ACHN renal = tested on: ACHN renal
UACC-257 melanoma = tested on: UACC-257 melanoma
MOLT-4 leukemia = tested on: MOLT-4 leukemia
OVCAR-5 ovarian = tested on: OVCAR-5 ovarian
CCRF-CEM leukemia = tested on: CCRF-CEM leukemia
BT-549 breast = tested on: BT-549 breast
OVCAR-3 ovarian = tested on: OVCAR-3 ovarian
TK-10 renal = tested on: TK-10 renal
NCI-H23 lung = tested on: NCI-H23 lung
EKVX NSCLC = tested on: EKVX NSCLC
PC-3 prostate = tested on: PC-3 prostate
CAKI-1 renal = tested on: CAKI-1 renal
786-0 renal = tested on: 786-0 renal
NCI-H226 lung = tested on: NCI-H226 lung
SN12C renal = tested on: SN12C renal
KM12 colon = tested on: KM12 colon
SK-MEL-2 melanoma = tested on: SK-MEL-2 melanoma
HCT-116 colon = tested on: HCT-116 colon
UACC-62 melanoma = tested on: UACC-62 melanoma
SW-620 colon = tested on: SW-620 colon
RXF 393 renal = tested on: RXF 393 renal
SF-295 CNS = tested on: SF-295 CNS
UO-31 renal = tested on: UO-31 renal
SK-MEL-28 melanoma = tested on: SK-MEL-28 melanoma
OVCAR-4 ovarian = tested on: OVCAR-4 ovarian
DU-145 prostate = tested on: DU-145 prostate
HOP-62 NSCLC = tested on: HOP-62 NSCLC
SF-268 CNS = tested on: SF-268 CNS
SK-MEL-5 melanoma = tested on: SK-MEL-5 melanoma
NCI-H522 lung = tested on: NCI-H522 lung
RPMI-8226 leukemia = tested on: RPMI-8226 leukemia
M14 melanoma = tested on: M14 melanoma
SNB-19 CNS = tested on: SNB-19 CNS
NCI-H460 lung = tested on: NCI-H460 lung
HCT-15 colon = tested on: HCT-15 colon
OVCAR-8 ovarian = tested on: OVCAR-8 ovarian
HS 578T breast = tested on: HS 578T breast
LOX IMVI melanoma = tested on: LOX IMVI melanoma
MCF7 breast = tested on: MCF7 breast
MALME-3M melanoma = tested on: MALME-3M melanoma
U251 CNS = tested on: U251 CNS
A549 NSCLC = tested on: A549 NSCLC
MDA-MB-231 breast = tested on: MDA-MB-231 breast
MDA-MB-435 = tested on: MDA-MB-435
T-47D breast = tested on: T-47D breast
SR leukemia = tested on: SR leukemia
HL-60(TB) leukemia = tested on: HL-60(TB) leukemia
HOP-92 NSCLC = tested on: HOP-92 NSCLC
IGROV1 ovarian = tested on: IGROV1 ovarian
HT29 colon = tested on: HT29 colon
MDA-N = tested on: MDA-N
K-562 leukemia = tested on: K-562 leukemia
COLO 205 colon = tested on: COLO 205 colon
SK-OV-3 ovarian = tested on: SK-OV-3 ovarian
A498 renal = tested on: A498 renal
SNB-75 CNS = tested on: SNB-75 CNS
SF-539 CNS = tested on: SF-539 CNS
HCC-2998 colon = tested on: HCC-2998 colon

C=C1C[C@@H](O)[C@@H](Br)C(C)(C)[C@@]12C=CC(O)(CBr)CC2 (some centres undefined)
TGI (ACHN renal): > 100 µM | TGI (UACC-257 melanoma): > 100 µM | TGI (MOLT-4 leukemia): 76.2 µM | TGI (OVCAR-5 ovarian): > 100 µM | TGI (CCRF-CEM leukemia): 64.2 µM | TGI (BT-549 breast): 83.7 µM | TGI (OVCAR-3 ovarian): > 100 µM | TGI (TK-10 renal): > 100 µM | TGI (NCI-H23 lung): > 100 µM | TGI (EKVX NSCLC): 79.2 µM | TGI (PC-3 prostate): 9.72 µM | TGI (CAKI-1 renal): > 100 µM | TGI (786-0 renal): > 100 µM | TGI (NCI-H226 lung): > 100 µM | TGI (SN12C renal): > 100 µM | TGI (KM12 colon): 15.1 µM | TGI (SK-MEL-2 melanoma): > 100 µM | TGI (HCT-116 colon): > 100 µM | TGI (UACC-62 melanoma): > 100 µM | TGI (SW-620 colon): > 100 µM | TGI (RXF 393 renal): > 100 µM | TGI (SF-295 CNS): > 100 µM | TGI (UO-31 renal): > 100 µM | TGI (SK-MEL-28 melanoma): > 100 µM | TGI (OVCAR-4 ovarian): > 100 µM | TGI (DU-145 prostate): > 100 µM | TGI (HOP-62 NSCLC): > 100 µM | TGI (SF-268 CNS): > 100 µM | TGI (SK-MEL-5 melanoma): > 100 µM | TGI (NCI-H522 lung): > 100 µM | TGI (RPMI-8226 leukemia): 70.7 µM | TGI (M14 melanoma): > 100 µM | TGI (SNB-19 CNS): > 100 µM | TGI (NCI-H460 lung): > 100 µM | TGI (HCT-15 colon): > 100 µM | TGI (OVCAR-8 ovarian): > 100 µM | TGI (HS 578T breast): > 100 µM | TGI (LOX IMVI melanoma): > 100 µM | TGI (MCF7 breast): > 100 µM | TGI (MALME-3M melanoma): > 100 µM | TGI (U251 CNS): > 100 µM | TGI (A549 NSCLC): > 100 µM | TGI (MDA-MB-231 breast): 93.5 µM | TGI (MDA-MB-435): > 100 µM | TGI (T-47D breast): > 100 µM | TGI (SR leukemia): 77.6 µM | TGI (HL-60(TB) leukemia): > 100 µM | TGI (HOP-92 NSCLC): 61 µM | TGI (IGROV1 ovarian): > 100 µM | TGI (HT29 colon): > 100 µM | TGI (MDA-N): > 100 µM | TGI (K-562 leukemia): > 100 µM

CC(NC(=O)C(Cc1ccc(OC(=O)c2ccccc2)cc1)NC(=O)OC(C)(C)C)C(=O)NCC(=O)NC(Cc1ccccc1)NC(=O)OCc1ccccc1 (centres undefined)
TGI (ACHN renal): > 100 µM | TGI (MOLT-4 leukemia): > 100 µM | TGI (OVCAR-5 ovarian): > 100 µM | TGI (BT-549 breast): > 100 µM | TGI (COLO 205 colon): > 100 µM | TGI (OVCAR-3 ovarian): > 100 µM | TGI (TK-10 renal): > 100 µM | TGI (NCI-H23 lung): > 100 µM | TGI (SK-OV-3 ovarian): > 100 µM | TGI (EKVX NSCLC): > 100 µM | TGI (PC-3 prostate): > 100 µM | TGI (CAKI-1 renal): > 100 µM | TGI (786-0 renal): > 100 µM | TGI (NCI-H226 lung): > 100 µM | TGI (SN12C renal): > 100 µM | TGI (KM12 colon): > 100 µM | TGI (HCT-116 colon): > 100 µM | TGI (UACC-62 melanoma): > 100 µM | TGI (SW-620 colon): > 100 µM | TGI (RXF 393 renal): > 100 µM | TGI (SF-295 CNS): > 100 µM | TGI (UO-31 renal): > 100 µM | TGI (SK-MEL-28 melanoma): > 100 µM | TGI (OVCAR-4 ovarian): > 100 µM | TGI (DU-145 prostate): > 100 µM | TGI (HOP-62 NSCLC): > 100 µM | TGI (SF-268 CNS): > 100 µM | TGI (SK-MEL-5 melanoma): > 100 µM | TGI (NCI-H522 lung): > 100 µM | TGI (RPMI-8226 leukemia): > 100 µM | TGI (M14 melanoma): > 100 µM | TGI (SNB-19 CNS): > 100 µM | TGI (NCI-H460 lung): > 100 µM | TGI (HCT-15 colon): > 100 µM | TGI (OVCAR-8 ovarian): > 100 µM | TGI (HS 578T breast): > 100 µM | TGI (A498 renal): > 100 µM | TGI (LOX IMVI melanoma): > 100 µM | TGI (MCF7 breast): > 100 µM | TGI (MALME-3M melanoma): > 100 µM | TGI (U251 CNS): > 100 µM | TGI (A549 NSCLC): > 100 µM | TGI (MDA-MB-231 breast): > 100 µM | TGI (MDA-MB-435): > 100 µM | TGI (T-47D breast): > 100 µM | TGI (SNB-75 CNS): > 100 µM | TGI (SR leukemia): > 100 µM | TGI (HL-60(TB) leukemia): > 100 µM | TGI (HOP-92 NSCLC): > 100 µM | TGI (IGROV1 ovarian): > 100 µM | TGI (HT29 colon): > 100 µM | TGI (MDA-N): > 100 µM | TGI (SF-539 CNS): > 100 µM | TGI (K-562 leukemia): > 100 µM

CC1CC2=C(C1)C(C1(C)C(=O)CC3C(C1=O)C3(C)C)C(C)C2=O (centres undefined)
TGI (ACHN renal): > 100 µM | TGI (UACC-257 melanoma): > 100 µM | TGI (MOLT-4 leukemia): > 100 µM | TGI (OVCAR-5 ovarian): > 100 µM | TGI (CCRF-CEM leukemia): > 100 µM | TGI (BT-549 breast): > 100 µM | TGI (COLO 205 colon): > 100 µM | TGI (OVCAR-3 ovarian): > 100 µM | TGI (TK-10 renal): > 100 µM | TGI (NCI-H23 lung): > 100 µM | TGI (SK-OV-3 ovarian): > 100 µM | TGI (EKVX NSCLC): > 100 µM | TGI (PC-3 prostate): > 100 µM | TGI (CAKI-1 renal): > 100 µM | TGI (786-0 renal): > 100 µM | TGI (NCI-H226 lung): > 100 µM | TGI (SN12C renal): > 100 µM | TGI (KM12 colon): > 100 µM | TGI (SK-MEL-2 melanoma): > 100 µM | TGI (HCT-116 colon): > 100 µM | TGI (UACC-62 melanoma): > 100 µM | TGI (SW-620 colon): > 100 µM | TGI (RXF 393 renal): > 100 µM | TGI (SF-295 CNS): > 100 µM | TGI (UO-31 renal): > 100 µM | TGI (SK-MEL-28 melanoma): > 100 µM | TGI (OVCAR-4 ovarian): > 100 µM | TGI (DU-145 prostate): > 100 µM | TGI (HOP-62 NSCLC): > 100 µM | TGI (SF-268 CNS): > 100 µM | TGI (SK-MEL-5 melanoma): > 100 µM | TGI (NCI-H522 lung): > 100 µM | TGI (RPMI-8226 leukemia): > 100 µM | TGI (M14 melanoma): > 100 µM | TGI (SNB-19 CNS): > 100 µM | TGI (NCI-H460 lung): > 100 µM | TGI (HCT-15 colon): > 100 µM | TGI (OVCAR-8 ovarian): > 100 µM | TGI (HS 578T breast): > 100 µM | TGI (A498 renal): > 100 µM | TGI (LOX IMVI melanoma): > 100 µM | TGI (MCF7 breast): > 100 µM | TGI (MALME-3M melanoma): > 100 µM | TGI (U251 CNS): > 100 µM | TGI (A549 NSCLC): > 100 µM | TGI (MDA-MB-231 breast): > 100 µM | TGI (MDA-MB-435): > 100 µM | TGI (T-47D breast): > 100 µM | TGI (SNB-75 CNS): > 100 µM | TGI (SR leukemia): > 100 µM | TGI (HL-60(TB) leukemia): > 100 µM | TGI (HOP-92 NSCLC): > 100 µM | TGI (IGROV1 ovarian): > 100 µM | TGI (HCC-2998 colon): > 100 µM | TGI (HT29 colon): > 100 µM | TGI (MDA-N): > 100 µM | TGI (SF-539 CNS): > 100 µM | TGI (K-562 leukemia): > 100 µM
